Earlier results, collected in patent EP4506356A1, “METHANOL-INDUCIBLE PROMOTER AND USE THEREOF IN PREPARATION OF L-ALANYL-L-GLUTAMINE” (Wuhan Grand Hoyo Co., Ltd., priority 2022, dated 2023).
≈ marks a conversion by molar mass, not a printed value. Residues, ends and D or L forms follow the SMILES beside them.

- water solubility: 586 mg/mL (≈ 2700 mM)
SMILES: C[C@H](N)C(=O)N[C@@H](CCC(N)=O)C(=O)O [Alanyl-glutamine dipeptide, L-alanyl-L-glutamine] (H-Ala-Gln-OH)
